Experimental data reported in US12404295B2, “(Hetero)aryl-methyl-thio-beta-D-galactopyranoside derivatives” (Idorsia Pharmaceuticals Ltd, priority 2019, dated 2025).
Like-named read-outs stand apart in the source and are kept apart here.

How the values were obtained:
human Gal-3 (hGal-3) = human Gal-3 (hGal-3) (Homo sapiens (Human), UniProt P17931); assay: competitive binding assay: biotinylated hGal-3 binding to microplate-adsorbed asialofetuin (ASF)
How it was run: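 Serially diluted compounds compete with biotinylated hGal-3 binding to adsorbed asialofetuin (3 hours, 4° C). After washing, streptavidin-peroxidase at 80 ng/mL for 1 hour at 4° C, with ABTS colour read-out. IC50 values are averaged over repeated runs.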

human Gal-1 (hGal-1) = human Gal-1 (hGal-1) (Homo sapiens (Human), UniProt P09382); assay: competitive binding assay: biotinylated hGal-1 binding to microplate-adsorbed asialofetuin (ASF); conditions: Table 15; read-out: IC50 (Galectin-1 inhibition)
How it was run: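 Spectrophotometric competition readout: after compound and biotinylated hGal-1 (300-1000 ng/mL) sit 3 h at 4° C on adsorbed asialofetuin, streptavidin-peroxidase (1 h, 4° C) and ABTS reveal residual binding. Reported IC50 values are means of repeat runs.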

[1] = Gal-3 inhibition, binding of biotinylated hGal-3 to ASF, mean values, read-out: IC50

Sequence of human Gal-1 (hGal-1) (P09382 whole entry): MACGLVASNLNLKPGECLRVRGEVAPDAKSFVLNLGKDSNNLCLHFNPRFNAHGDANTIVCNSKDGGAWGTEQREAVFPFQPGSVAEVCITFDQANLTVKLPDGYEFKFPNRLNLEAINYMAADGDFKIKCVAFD
Sequence of human Gal-3 (hGal-3) (P17931 whole entry): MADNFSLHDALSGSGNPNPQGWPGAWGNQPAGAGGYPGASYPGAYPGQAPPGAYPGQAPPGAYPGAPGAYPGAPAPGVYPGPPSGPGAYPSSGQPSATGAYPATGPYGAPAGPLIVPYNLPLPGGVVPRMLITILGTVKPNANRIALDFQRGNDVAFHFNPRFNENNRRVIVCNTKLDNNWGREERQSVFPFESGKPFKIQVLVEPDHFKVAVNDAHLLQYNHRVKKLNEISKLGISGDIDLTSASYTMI

| SMILES | IC50 (human Gal-3 (hGal-3); [1]) [nM] | IC50 (human Gal-1 (hGal-1)) [nM] | IC50 (human Gal-3 (hGal-3); Table 10, 2-OMe-Gal inhibitors, read-out: IC50 (Gal-3 inhibition)) [nM] | IC50 (human Gal-3 (hGal-3); Table 9, 2-OMe-Gal inhibitors, read-out: IC50 (Gal-3 inhibition)) [nM] |
| --- | --- | --- | --- | --- |
| CO[C@@H]1[C@@H](n2cc(-c3cc(F)c(F)c(F)c3)nn2)[C@@H](O)[C@@H](CO)O[C@H]1SC(c1ccccc1C(F)(F)F)C1(O)CCN(S(=O)(=O)C2CC2)CC1 (stereo partly drawn) [Example 2.51.112.I., 1-(Cyclopropylsulfonyl)-4-((((2S,3R,4S,5R,6R)-5-hydroxy-6-(hydroxymethyl)-3-methoxy-4-(4-(3,4,5-trifluorophenyl)-1H-1,2,3-triazol-1-yl)tetrahydro-2H-pyran-2-yl)thio)(2-(trifluoromethyl)phenyl)methyl)piperidin-4-ol] | 80 | 350 |  |  |
| OC[C@H]1O[C@@H](SC(c2ccccc2)C2CC2)[C@H](O)[C@@H](n2cc(-c3cc(F)c(F)c(F)c3)nn2)[C@H]1O (stereo partly drawn) [Example 2.54.100., (2S,3R,4S,5R,6R)-2-((Cyclopropyl(phenyl)methyl)thio)-6-(hydroxymethyl)-4-(4-(3,4,5-trifluorophenyl)-1H-1,2,3-triazol-1-yl)tetrahydro-2H-pyran-3,5-diol, reference compound] | 3210 | 61200 |  |  |
| CCC(O)C(S[C@@H]1O[C@H](CO)[C@H](O)[C@H](n2cc(-c3cc(F)c(F)c(F)c3)nn2)[C@H]1O)c1ccccc1C(F)(F)F (stereo partly drawn) [Example 2.60.112., (2S,3R,4S,5R,6R)-2-((2-Hydroxy-1-(2-(trifluoromethyl)phenyl)butyl)thio)-6-(hydroxymethyl)-4-(4-(3,4,5-trifluorophenyl)-1H-1,2,3-triazol-1-yl)tetrahydro-2H-pyran-3,5-diol] | 230 | 3500 |  |  |
| OC[C@H]1O[C@@H](SC(c2ccccc2C(F)(F)F)C(O)c2ccccc2)[C@H](O)[C@@H](n2cc(-c3cc(F)c(F)c(F)c3)nn2)[C@H]1O (stereo partly drawn) [Example 2.61.112., (2S,3R,4S,5R,6R)-2-((2-Hydroxy-2-phenyl-1-(2-(trifluoromethyl)phenyl)ethyl)thio)-6-(hydroxymethyl)-4-(4-(3,4,5-trifluorophenyl)-1H-1,2,3-triazol-1-yl)tetrahydro-2H-pyran-3,5-diol] | 1100 | 7880 |  |  |
| Cc1ccccc1C(O)C(S[C@@H]1O[C@H](CO)[C@H](O)[C@H](n2cc(-c3cc(F)c(F)c(F)c3)nn2)[C@H]1O)c1ccccc1C(F)(F)F (stereo partly drawn) [Example 2.62.112., (2S,3R,4S,5R,6R)-2-((2-Hydroxy-2-(o-tolyl)-1-(2-(trifluoromethyl)phenyl)ethyl)thio)-6-(hydroxymethyl)-4-(4-(3,4,5-trifluorophenyl)-1H-1,2,3-triazol-1-yl)tetrahydro-2H-pyran-3,5-diol] | 1220 | 11700 |  |  |
| CO[C@@H]1[C@@H](n2cc(-c3cc(F)c(F)c(F)c3)nn2)[C@@H](O)[C@@H](CO)O[C@H]1S[C@H](c1nocc1C)C1(O)CCS(=O)(=O)CC1 [Example 2.66.120R.I., 4-Hydroxy-4-((R)-(((2S,3R,4S,5R,6R)-5-hydroxy-6-(hydroxymethyl)-3-methoxy-4-(4-(3,4,5-trifluorophenyl)-1H-1,2,3-triazol-1-yl)tetrahydro-2H-pyran-2-yl)thio)(4-methylisoxazol-3-yl)methyl)tetrahydro-2H-thiopyran 1,1-dioxide] |  | 580 | 70 |  |
| Cc1conc1[C@H](S[C@@H]1O[C@H](CO)[C@H](O)[C@H](n2cc(-c3cc(F)c(F)c(F)c3)nn2)[C@H]1O)C1(O)CCS(=O)(=O)CC1 [Example 2.66.120S., 4-((S)-(((2S,3R,4S,5R,6R)-3,5-Dihydroxy-6-(hydroxymethyl)-4-(4-(3,4,5-trifluorophenyl)-1H-1,2,3-triazol-1-yl)tetrahydro-2H-pyran-2-yl)thio)(4-methylisoxazol-3-yl)methyl)-4-hydroxytetrahydro-2H-thiopyran 1,1-dioxide] | 4570 | 24100 |  |  |
| Cc1cccnc1[C@H](S[C@@H]1O[C@H](CO)[C@H](O)[C@H](n2cc(-c3cc(F)c(F)c(F)c3)nn2)[C@H]1O)C1(O)CCS(=O)(=O)CC1 [Example 2.66.126S., 4-((S)-(((2S,3R,4S,5R,6R)-3,5-Dihydroxy-6-(hydroxymethyl)-4-(4-(3,4,5-trifluorophenyl)-1H-1,2,3-triazol-1-yl)tetrahydro-2H-pyran-2-yl)thio)(3-methylpyridin-2-yl)methyl)-4-hydroxytetrahydro-2H-thiopyran 1,1-dioxide] | 2000 | 16500 |  |  |
| Cc1c(F)cc(-c2cn([C@H]3[C@@H](O)[C@@H](CO)O[C@@H](SC(c4ccccc4C(F)(F)F)C(C)(C)O)[C@@H]3O)nn2)cc1F (stereo partly drawn) [Example 3.31.112., (2S,3R,4S,5R,6R)-4-(4-(3,5-Difluoro-4-methylphenyl)-1H-1,2,3-triazol-1-yl)-2-((2-hydroxy-2-methyl-1-(2-(trifluoromethyl)phenyl)propyl)thio)-6-(hydroxymethyl)tetrahydro-2H-pyran-3,5-diol] | 210 | 4900 |  |  |

These reach a lower IC50 (human Gal-1 (hGal-1)). Values come first.

| IC50 (human Gal-3 (hGal-3); [1]) [nM] | IC50 (human Gal-1 (hGal-1)) [nM] | IC50 (human Gal-3 (hGal-3); Table 10, 2-OMe-Gal inhibitors, read-out: IC50 (Gal-3 inhibition)) [nM] | IC50 (human Gal-3 (hGal-3); Table 9, 2-OMe-Gal inhibitors, read-out: IC50 (Gal-3 inhibition)) [nM] | SMILES |
| --- | --- | --- | --- | --- |
| 140 | 330 |  |  | Cc1conc1C(S[C@@H]1O[C@H](CO)[C@H](O)[C@H](n2cc(-c3cc(F)c(F)c(F)c3)nn2)[C@H]1O)C1(O)CCS(=O)(=O)CC1 (stereo partly drawn) [Example 2.66.120., 4-((((2S,3R,4S,5R,6R)-3,5-Dihydroxy-6-(hydroxymethyl)-4-(4-(3,4,5-trifluorophenyl)-1H-1,2,3-triazol-1-yl)tetrahydro-2H-pyran-2-yl)thio)(4-methylisoxazol-3-yl)methyl)-4-hydroxytetrahydro-2H-thiopyran 1,1-dioxide] |
| 30 | 70 |  |  | Cc1conc1[C@@H](S[C@@H]1O[C@H](CO)[C@H](O)[C@H](n2cc(-c3cc(F)c(F)c(F)c3)nn2)[C@H]1O)C1(O)CCS(=O)(=O)CC1 [Example 2.66.120R., 4-((R)-(((2S,3R,4S,5R,6R)-3,5-Dihydroxy-6-(hydroxymethyl)-4-(4-(3,4,5-trifluorophenyl)-1H-1,2,3-triazol-1-yl)tetrahydro-2H-pyran-2-yl)thio)(4-methylisoxazol-3-yl)methyl)-4-hydroxytetrahydro-2H-thiopyran 1,1-dioxide] |
| 20 | 170 |  |  | Cc1cccnc1[C@@H](S[C@@H]1O[C@H](CO)[C@H](O)[C@H](n2cc(-c3cc(F)c(F)c(F)c3)nn2)[C@H]1O)C1(O)CCS(=O)(=O)CC1 [Example 2.66.126R., 4-((R)-(((2S,3R,4S,5R,6R)-3,5-Dihydroxy-6-(hydroxymethyl)-4-(4-(3,4,5-trifluorophenyl)-1H-1,2,3-triazol-1-yl)tetrahydro-2H-pyran-2-yl)thio)(3-methylpyridin-2-yl)methyl)-4-hydroxytetrahydro-2H-thiopyran 1,1-dioxide] |
|  | 90 |  | 60 | CO[C@@H]1[C@@H](n2cc(-c3cc(F)c(F)c(F)c3)nn2)[C@@H](O)[C@@H](CO)O[C@H]1S[C@H](c1ncccc1C)C1(O)CCS(=O)(=O)CC1 [Example 2.66.126R.I., 4-Hydroxy-4-((R)-(((2S,3R,4S,5R,6R)-5-hydroxy-6-(hydroxymethyl)-3-methoxy-4-(4-(3,4,5-trifluorophenyl)-1H-1,2,3-triazol-1-yl)tetrahydro-2H-pyran-2-yl)thio)(3-methylpyridin-2-yl)methyl)tetrahydro-2H-thiopyran 1,1-dioxide] |
